Laboratory results: ChEMBL document CHEMBL5537171, “Design, Synthesis, and Biological Evaluation of Potent and Selective PROTAC Degraders of Oncogenic KRASG12D” (J Med Chem, 2024)
pIC50: −log10 of the molar value. Calls of active or inactive are those of the source. The calls are words filed in the database; no cut-off is given here.

Key:
[1] = Cmax in BALB/c mouse at 10 mg/kg, sc by LC-MS/MS analysis; type: ADME, organism-based; conditions: in vivo
[2] = Tmax in BALB/c mouse at 10 mg/kg, sc by LC-MS/MS analysis; type: ADME, organism-based; conditions: in vivo
[3] = system: von Hippel-Lindau disease tumor suppressor/GTPase KRas (Homo sapiens), P01116+P40337 [G12D]; test: PROTAC activity at VHL/KRAS G12D mutant in human ASPC1 cells assessed as decrease in pERK level at 1 uM incubated for 6 hrs followed by compound washout measured upto 72 hrs by Western blot analysis; type: cell-based
ASPC1 [4] = test: Antiproliferative activity against human ASPC1 cells assessed as inhibition of cell viability incubated for 6 hrs followed by compound washout measured after 114 hrs by Cell Titer Glo assay; type: functional, cell-based
[5] = biological target: T1, von Hippel-Lindau disease tumor suppressor/GTPase KRas (Homo sapiens, UniProt P01116+P40337, G12D); test: PROTAC activity at VHL/KRAS G12D mutant in human ASPC1 cells assessed as induction of protein degradation incubated for 24 hrs by Western blot analysis; type: cell-based; conditions: read-out: DC50
[6] = Competitive binding affinity to His-tagged VHL/Elongin C/Elongin B/KRAS G12D mutant (unknown origin) by FP assay; parameters: species or system Homo sapiens
[7] = Cooperativity factor alpha, ratio of IC50 for His-tagged VHL/Elongin C/Elongin B (unknown origin) to IC50 for His-tagged VHL/Elongin C/Elongin B/KRAS (unknown origin)
[8] = system: von Hippel-Lindau disease tumor suppressor/GTPase KRas (Homo sapiens), P01116+P40337 [G12D]; test: PROTAC activity at VHL/KRAS G12D mutant in human ASPC1 cells assessed as induction protein degradation at 1 uM measured for 6 hrs by Western blot analysis relative to control; type: cell-based
[9] = system: von Hippel-Lindau disease tumor suppressor/GTPase KRas (Homo sapiens), P01116+P40337 [G12D]; test: PROTAC activity at VHL/KRAS G12D mutant in human ASPC1 cells assessed as induction of protein degradation at 1 uM incubated for 6 hrs by Western blot analysis; type: cell-based
[10] = system: von Hippel-Lindau disease tumor suppressor/GTPase KRas (Homo sapiens), P01116+P40337 [G12D]; test: PROTAC activity at VHL/KRAS G12D mutant in human ASPC1 cells assessed as induction of protein degradation at 1 uM pretreated with (2S,4R)-1-((S)-2-acetamido-3,3-dimethylbutanoyl)-4-hydroxy-N-((S)-1-(4-(4-methylthiazol-5-yl)phenyl)ethyl)pyrrolidine-2-carboxamide followed by compound treatment for 6 hrs by Western blot analysis; type: cell-based
[11] = system: von Hippel-Lindau disease tumor suppressor/GTPase KRas (Homo sapiens), P01116+P40337 [G12D]; test: PROTAC activity at VHL/KRAS G12D mutant in human ASPC1 cells assessed as induction of protein degradation at 1 uM pretreated with 4-(4-((1R,5S)-3,8-diazabicyclo[3.2.1]octan-3-yl)-8-fluoro-2-(((S)-1-methylpyrrolidin-2-yl)methoxy)pyrido[4,3-d]pyrimidin-7-yl)-5-ethyl-6-fluoronaphthalen-2-ol followed by compound treatment for 6 hrs by Western blot analysis; type: cell-based
[12] = system: von Hippel-Lindau disease tumor suppressor/GTPase KRas (Homo sapiens), P01116+P40337 [G12D]; test: PROTAC activity at VHL/KRAS G12D mutant in human ASPC1 cells assessed as induction of protein degradation at 1 uM incubated for 24 hrs by Western blot analysis relative to control; type: cell-based
[13] = biological target: von Hippel-Lindau disease tumor suppressor/GTPase KRas (Homo sapiens) (UniProt P01116+P40337); test: PROTAC activity at VHL/KRAS in human NCI-H1975 cells assessed as induction of protein degradation at 0.1 uM incubated for 24 hrs by Western blot analysis; type: cell-based
[14] = system: von Hippel-Lindau disease tumor suppressor/GTPase KRas (Homo sapiens), P01116+P40337 [G12S]; test: PROTAC activity at VHL/KRAS G12S mutant in human A549 cells assessed as induction of protein degradation at 0.1 uM incubated for 24 hrs by Western blot analysis; type: cell-based
[15] = system: von Hippel-Lindau disease tumor suppressor/GTPase KRas (Homo sapiens), P01116+P40337 [G12C]; test: PROTAC activity at VHL/KRAS G12C mutant in human NCI-H358 cells assessed as induction of protein degradation at 1 uM incubated for 24 hrs by Western blot analysis relative to control; type: cell-based
[16] = system: von Hippel-Lindau disease tumor suppressor/GTPase KRas (Homo sapiens), P01116+P40337 [G13D]; test: PROTAC activity at VHL/KRAS G13D mutant in human HCT-116 cells assessed as induction of protein degradation at 0.1 uM incubated for 24 hrs by Western blot analysis; type: cell-based
ASPC1 [17] = test: Downregulation of KRT9 level in human ASPC1 cells at 0.1 uM incubated for 6 hrs by DIA-based proteomic analysis; type: functional, cell-based
ASPC1 [18] = test: Downregulation of DUSP4 mRNA level in human ASPC1 cells at 0.1 to 1 uM incubated for 6 hrs by RT-qPCR analysis; type: functional, cell-based; conditions: dose 0.1-1 µM
[19] = biological target: T1, von Hippel-Lindau disease tumor suppressor/GTPase KRas; test: PROTAC activity at VHL/KRAS G12D mutant in human AGS cells assessed as induction of protein degradation incubated for 24 hrs by Western blot analysis; type: cell-based
[20] = biological target: T1, von Hippel-Lindau disease tumor suppressor/GTPase KRas; test: PROTAC activity at VHL/KRAS G12D mutant in human PANC-1 cells assessed as induction of protein degradation incubated for 24 hrs by Western blot analysis; type: cell-based
HPAF-II = test: Antiproliferative activity against human HPAF-II cells harboring KRAS G12D mutant assessed as inhibition of cell viability incubated for 5 days by Cell Titer Glo assay; type: functional, cell-based; conditions: 120 h
NCI-H1975 = test: Antiproliferative activity against human NCI-H1975 cells harboring wild-type KRAS assessed as inhibition of cell viability incubated for 5 days by Cell Titer Glo assay; type: functional, cell-based; conditions: NCI-H1975, 120 h
[21] = system: von Hippel-Lindau disease tumor suppressor/GTPase KRas (Homo sapiens), P01116+P40337 [G12D]; test: PROTAC activity at VHL/KRAS G12D mutant in human ASPC1 cells assessed as induction of protein degradation at 1 uM incubated for 6 hrs followed by compound washout measured after 72 hrs by Western blot analysis; type: cell-based
[22] = AUClast in BALB/c mouse at 10 mg/kg, sc by LC-MS/MS analysis; type: ADME, organism-based; conditions: in vivo
[23] = system: von Hippel-Lindau disease tumor suppressor/GTPase KRas (Homo sapiens), P01116+P40337 [G12D]; test: In vivo PROTAC activity at VHL/KRAS G12D mutant in human ASPC1 cells xenografted in BALB/c nude mouse assessed as induction of protein degradation at 50 mg/kg, sc measured for 3 to 72 hrs by Western blot analysis; type: functional, organism-based; conditions: time 3-72 hrs
[24] = system: von Hippel-Lindau disease tumor suppressor/GTPase KRas (Homo sapiens), P01116+P40337 [G12D]; test: In vivo PROTAC activity at VHL/KRAS G12D mutant in human ASPC1 cells xenografted in BALB/c nude mouse assessed as decrease in pERK level at 50 mg/kg, sc measured for 24 hrs by Western blot analysis; type: functional, organism-based
ASPC1 [25] = test: Antitumor activity in human ASPC1 cells xenografted in BALB/c nude mouse assessed as tumor growth inhibition at 50 mg/kg, sc administered once daily for 22 days relative to control; type: functional; conditions: ASPC1, 528 h, time 22 day, read-out: TGI
[26] = system: von Hippel-Lindau disease tumor suppressor/GTPase KRas (Homo sapiens), P01116+P40337 [G12D]; test: In vivo PROTAC activity at VHL/KRAS G12D mutant in human ASPC1 cells xenografted in BALB/c nude mouse assessed as induction of protein degradation at 50 mg/kg, sc measured for >24 hrs; type: functional, organism-based
[27] = Toxicity in BALB/c nude mouse xenografted with human ASPC1 cells assessed as notable toxic symptoms at 50 mg/kg, sc for 22 days; type: organism-based; conditions: in vivo, 528 h, time 22 day
ASPC1 [28] = test: Antitumor activity in human ASPC1 cells xenografted in BALB/c nude mouse assessed as tumor growth inhibition at 30 mg/kg, ip bid for 22 days relative to control; type: functional; conditions: ASPC1, 528 h, time 22 day, read-out: TGI

T1 sequence (P01116 whole entry G12D, stated change not applied): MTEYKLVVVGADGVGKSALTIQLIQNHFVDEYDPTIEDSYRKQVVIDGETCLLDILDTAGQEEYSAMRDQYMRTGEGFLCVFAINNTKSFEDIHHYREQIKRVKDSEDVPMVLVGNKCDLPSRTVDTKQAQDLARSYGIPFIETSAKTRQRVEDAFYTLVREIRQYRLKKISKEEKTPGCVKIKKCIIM
T1 sequence (P40337 whole entry, stated change not applied): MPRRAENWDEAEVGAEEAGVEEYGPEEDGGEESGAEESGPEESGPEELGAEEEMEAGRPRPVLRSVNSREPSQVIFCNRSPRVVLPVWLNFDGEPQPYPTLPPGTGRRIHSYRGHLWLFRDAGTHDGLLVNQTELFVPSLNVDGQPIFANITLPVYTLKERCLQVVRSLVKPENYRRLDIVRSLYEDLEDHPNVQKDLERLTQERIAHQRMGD
Chain of von Hippel-Lindau disease tumor suppressor/GTPase KRas (Homo sapiens), P01116+P40337 [G12D] (P01116 whole entry G12D): as the sequence (P01116 whole entry G12D, stated change not applied) above
Chain of von Hippel-Lindau disease tumor suppressor/GTPase KRas (Homo sapiens), P01116+P40337 [G12D] (P40337 whole entry partner): as the sequence (P40337 whole entry, stated change not applied) above
Chain of von Hippel-Lindau disease tumor suppressor/GTPase KRas (Homo sapiens) (P01116 whole entry, looked up): as the sequence (P01116 whole entry G12D, stated change not applied) above, with D12G counted along it
Chain of von Hippel-Lindau disease tumor suppressor/GTPase KRas (Homo sapiens) (P40337 whole entry, looked up): as the sequence (P40337 whole entry, stated change not applied) above

SMILES: CCc1c(F)ccc2cc(O)cc(-c3ncc4c(N5C[C@H]6CC[C@@H](C5)N6)nc(OC[C@@H]5CCCN5CCCCOCC(=O)N[C@H](C(=O)N5C[C@H](O)C[C@H]5C(=O)N[C@@H](C)c5ccc(-c6scnc6C)cc5)C(C)(C)C)nc4c3F)c12
- Cmax [1]: 2080 ng/mL
- Tmax [2]: 15 min
- Activity [3]: Active
- pIC50 (ASPC1 [4]): 6.64
- DC50 [5]: 38.1 nM
- pIC50 [6]: 7.73
- Ratio IC50 [7]: 15.9
- Activity [8]: 95%
- Activity [9]: Active
- Activity [10]: inactive
- Activity [11]: inactive
- Activity [12]: 95.1%
- Activity [13]: inactive
- Activity [14]: inactive
- Activity [15]: 37.4%
- Activity [16]: inactive
- Activity (ASPC1 [17]): Active
- Activity (ASPC1 [18]): Active
- DC50 [19]: 7.49 nM
- DC50 [20]: 87.8 nM
- pIC50 (HPAF-II): 7.34
- pIC50 (NCI-H1975): < 5.00
- Activity [21]: Active
- AUC(0-t) [22]: 4470 ng·h/mL
- Activity [23]: Active
- Activity [24]: Active
- inhibition in vivo at 50 mg/kg (ASPC1 [25]): 68.6%
- Activity [26]: Active
- Activity [27]: Non-Toxic
- inhibition in vivo at 30 mg/kg (ASPC1 [28]): 89.1%
